Laboratory results from ChEMBL document CHEMBL1201862, “PubChem BioAssay data set” (2004).
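Step 1: Grow cells in 96-well plates. Step 2: Expose to compound for 48 hours at 5 concentrations. Step 3: Interpolate endpoints linearly; if unreached, use highest concentration. Abbreviation: GI50, concentration required for 50% inhibition of growth.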 Active and inactive are the calls of the source. Rule as the data show it: active = GI50 up to about 1.1 µM and inactive = higher.

Tests used:
Assay in all cases: inhibition of tumour cell growth, NCI panel, 48 h
RXF 631 = test system: RXF 631
HOP-92 = test system: HOP-92
SNB-78 = test system: SNB-78
SK-MEL-5 = test system: SK-MEL-5
A549 = test system: A549
SNB-19 = test system: SNB-19
ACHN = test system: ACHN
SK-OV-3 = test system: SK-OV-3
NCI-H226 = test system: NCI-H226
LXFL 529 = test system: LXFL 529
DLD-1 = test system: DLD-1
CCRF-CEM = test system: CCRF-CEM
Malme-3M = test system: Malme-3M
SN12C = test system: SN12C
DMS-273 = test system: DMS-273
OVCAR-3 = test system: OVCAR-3
RPMI-8226 = test system: RPMI-8226
UACC-62 = test system: UACC-62
SNB-75 = test system: SNB-75
SF-539 = test system: SF-539
NCI-H460 = test system: NCI-H460
IGROV-1 = test system: IGROV-1
EKVX = test system: EKVX
CAKI-1 = test system: CAKI-1
SF-268 = test system: SF-268
KM12 = test system: KM12
786-0 = test system: 786-0
K562 = test system: K562
M19-MEL = test system: M19-MEL
KM-20L2 = test system: KM-20L2
LOX IMVI = test system: LOX IMVI
TK-10 = test system: TK-10
NCI-H522 = test system: NCI-H522
UO-31 = test system: UO-31
OVCAR-5 = test system: OVCAR-5
OVCAR-4 = test system: OVCAR-4
HCT-116 = test system: HCT-116
HOP-62 = test system: HOP-62
HCT-15 = test system: HCT-15
SW-620 = test system: SW-620
U-251 = test system: U-251
DMS-114 = test system: DMS-114
SK-MEL-2 = test system: SK-MEL-2
SK-MEL-28 = test system: SK-MEL-28
OVCAR-8 = test system: OVCAR-8
SF-295 = test system: SF-295
COLO 205 = test system: COLO 205
XF498 = test system: XF498
NCI-H23 = test system: NCI-H23
HCC 2998 = test system: HCC 2998
M14 = test system: M14
HT-29 = test system: HT-29
MOLT-4 = test system: MOLT-4
SR = test system: SR
HOP-18 = test system: HOP-18
A498 = test system: A498
UACC-257 = test system: UACC-257
HL-60 = test system: HL-60

C=C1C(=O)O[C@@H]2C[C@]3(C)[C@@H](C[C@H]12)[C@](C)(O)CC[C@@H]3O
GI50 (RXF 631): 87.5 µM (inactive) | GI50 (HOP-92): 81.3 µM (inactive) | GI50 (SNB-78): 47.8 µM (inactive) | GI50 (SK-MEL-5): 91.8 µM (inactive) | GI50 (A549): > 100 µM (inactive) | GI50 (SNB-19): > 100 µM (inactive) | GI50 (ACHN): > 100 µM (inactive) | GI50 (SK-OV-3): > 100 µM (inactive) | GI50 (NCI-H226): 48.3 µM (inactive) | GI50 (LXFL 529): 44 µM (inactive) | GI50 (DLD-1): 41 µM (inactive) | GI50 (CCRF-CEM): 33.5 µM (inactive) | GI50 (Malme-3M): 71.3 µM (inactive) | GI50 (SN12C): 59.4 µM (inactive) | GI50 (DMS-273): 52.8 µM (inactive) | GI50 (OVCAR-3): 37.9 µM (inactive) | GI50 (RPMI-8226): 52.7 µM (inactive) | GI50 (UACC-62): 32.5 µM (inactive) | GI50 (SNB-75): 53.3 µM (inactive) | GI50 (SF-539): 34 µM (inactive) | GI50 (NCI-H460): 23.7 µM (inactive) | GI50 (IGROV-1): > 100 µM (inactive) | GI50 (EKVX): > 100 µM (inactive) | GI50 (CAKI-1): 66.1 µM (inactive) | GI50 (SF-268): 42.4 µM (inactive) | GI50 (KM12): 37.8 µM (inactive) | GI50 (786-0): 39.4 µM (inactive) | GI50 (K562): 33.4 µM (inactive) | GI50 (M19-MEL): 43.9 µM (inactive) | GI50 (KM-20L2): 38.9 µM (inactive) | GI50 (LOX IMVI): 55.7 µM (inactive) | GI50 (TK-10): 26.9 µM (inactive) | GI50 (NCI-H522): 34.8 µM (inactive) | GI50 (UO-31): > 100 µM (inactive) | GI50 (OVCAR-5): > 100 µM (inactive) | GI50 (OVCAR-4): > 100 µM (inactive) | GI50 (HCT-116): 36 µM (inactive) | GI50 (HOP-62): > 100 µM (inactive) | GI50 (HCT-15): 52.4 µM | GI50 (SW-620): 45.9 µM (inactive) | GI50 (U-251): > 100 µM (inactive) | GI50 (DMS-114): 39.2 µM (inactive) | GI50 (SK-MEL-2): 69.2 µM (inactive) | GI50 (SK-MEL-28): 65.2 µM (inactive) | GI50 (OVCAR-8): 36.6 µM (inactive) | GI50 (SF-295): > 100 µM (inactive) | GI50 (COLO 205): 38.8 µM (inactive) | GI50 (XF498): 36.5 µM (inactive) | GI50 (NCI-H23): 30.1 µM (inactive) | GI50 (HCC 2998): > 100 µM (inactive) | GI50 (M14): 31.5 µM (inactive) | GI50 (HT-29): 33.3 µM (inactive) | GI50 (MOLT-4): 57.1 µM (inactive)

COc1ccc(S(=O)(=O)N/N=C(\C)CN2C(=O)c3ccccc3C2=O)cc1
GI50 (RXF 631): > 100 µM (inactive) | GI50 (SNB-78): > 100 µM (inactive) | GI50 (SR): > 100 µM (inactive) | GI50 (SK-MEL-5): > 100 µM (inactive) | GI50 (A549): > 100 µM (inactive) | GI50 (SNB-19): > 100 µM (inactive) | GI50 (ACHN): > 100 µM (inactive) | GI50 (SK-OV-3): > 100 µM (inactive) | GI50 (NCI-H226): > 100 µM (inactive) | GI50 (LXFL 529): > 100 µM (inactive) | GI50 (DLD-1): > 100 µM (inactive) | GI50 (CCRF-CEM): > 100 µM (inactive) | GI50 (Malme-3M): > 100 µM (inactive) | GI50 (SN12C): > 100 µM (inactive) | GI50 (DMS-273): > 100 µM (inactive) | GI50 (OVCAR-3): > 100 µM (inactive) | GI50 (RPMI-8226): > 100 µM (inactive) | GI50 (UACC-62): > 100 µM (inactive) | GI50 (SNB-75): > 100 µM (inactive) | GI50 (SF-539): > 100 µM (inactive) | GI50 (NCI-H460): > 100 µM (inactive) | GI50 (IGROV-1): > 100 µM (inactive) | GI50 (EKVX): > 100 µM (inactive) | GI50 (CAKI-1): > 100 µM (inactive) | GI50 (SF-268): > 100 µM (inactive) | GI50 (KM12): > 100 µM (inactive) | GI50 (786-0): > 100 µM (inactive) | GI50 (K562): > 100 µM (inactive) | GI50 (HOP-18): > 100 µM (inactive) | GI50 (M19-MEL): > 100 µM (inactive) | GI50 (KM-20L2): > 100 µM (inactive) | GI50 (LOX IMVI): > 100 µM (inactive) | GI50 (A498): > 100 µM (inactive) | GI50 (TK-10): > 100 µM (inactive) | GI50 (NCI-H522): > 100 µM (inactive) | GI50 (UO-31): > 100 µM (inactive) | GI50 (OVCAR-5): > 100 µM (inactive) | GI50 (OVCAR-4): > 100 µM (inactive) | GI50 (UACC-257): > 100 µM (inactive) | GI50 (HCT-116): > 100 µM (inactive) | GI50 (HOP-62): > 100 µM (inactive) | GI50 (HCT-15): > 100 µM | GI50 (SW-620): > 100 µM (inactive) | GI50 (U-251): > 100 µM (inactive) | GI50 (DMS-114): > 100 µM (inactive) | GI50 (SK-MEL-2): > 100 µM (inactive) | GI50 (SK-MEL-28): > 100 µM (inactive) | GI50 (OVCAR-8): > 100 µM (inactive) | GI50 (SF-295): > 100 µM (inactive) | GI50 (COLO 205): > 100 µM (inactive) | GI50 (NCI-H23): > 100 µM (inactive) | GI50 (HCC 2998): > 100 µM (inactive) | GI50 (M14): > 100 µM (inactive) | GI50 (HT-29): > 100 µM (inactive) | GI50 (MOLT-4): > 100 µM (inactive) | GI50 (HL-60): > 100 µM (inactive)
